The values that follow come from patent publication US8008487B2, “Substituted thieno[2,3-D]pyrimidines as fungicides” (priority 2004, dated 2011).

What all share (type): in vivo
Experiment [1] has as its system Leptosphaeria nodorum. Kind of experiment: Glume Blotch of Wheat (LEPTNO), whole-plant fungicide test. The conditions noted are these: Parastagonospora nodorum, foliar, 24 h, 200 ppm on foliage, one-day protectant test, read-out: LEPTNO percent control of disease.
The test system of experiment [2] is Puccinia recondita tritici. Kind of experiment: Leaf Rust of Wheat (PUCCRT), whole-plant fungicide test. Conditions: Puccinia recondita, foliar, 24 h, 200 ppm on foliage, one-day protectant test, read-out: PUCCRT percent control of disease.
For experiment [3], the system named is Cochliobolus sativus. Kind of experiment: Spot Blotch of Wheat (COCHSA), whole-plant fungicide test. The conditions noted are these: Bipolaris sorokiniana, foliar, 24 h, 200 ppm on foliage, one-day protectant test, read-out: COCHSA percent control of disease. On the procedure: The activity of the compounds as effective fungicides was determined by applying the compounds to plants and observing control of fungal disease. The compounds were formulated at 200 ppm in 10 vol. percent acetone plus 90 vol. percent Triton X water (deionized water 99.99 wt. percent+0.01 wt. percent Triton X100), giving a “formulated test compound.” In a few cases, compounds were formulated at 100, 75 or 8.3 ppm rather than 200 ppm in 10 vol. percent acetone plus 90 vol. percent Triton X water (deionized water 99.99 wt. percent+0.01 wt. percent Triton X100), giving a ‘formulated test compound’. The compounds were tested for ability to control plant diseases in a 1-day protectant test (1DP) or a 2-day curative test (2DC). Formulated test compounds were applied to plants using a turn table sprayer fitted with two opposing air atomization nozzles which delivered approximately 1500 L/ha of spray volume. Plants were inoculated with spores of the fungus the next day (1DP), then incubated in an environment conducive to disease development. In a few cases, the compounds were tested for ability to control plant disease in a two-day curative test. Plants were inoculated with spores of the fungus two days prior to compound application, and incubated in an environment conducive to disease development both before and after compound application (2DC). For all types of tests, disease severity was evaluated 4 to 28 days later, depending on the speed of disease development.
Each pot contained 3-8 seedlings. These plants were sprayed until wet with the formulated test compound. On the following day, the leaves were inoculated with an aqueous spore suspension of Cochliobolus sativus and the plants were kept in high humidity for one to two days to permit spores to germinate and infect the leaf. The plants were then transferred to a greenhouse until disease developed on untreated control plants.
The following table presents the activity of typical compounds of the present invention when evaluated in these experiments. The effectiveness of the test compounds in controlling disease was determined by assessing the severity of disease on treated plants, then converting the severity to percent control based on the level of disease on untreated, inoculated plants.
TABLE 4: Activity of compounds as fungicides. Data are the level at which the given disease was controlled when the given compound was applied to the foliage of the plant at 200 ppm. In a few cases (noted in the table) the compound was applied to the plant at 100, 75 or 8.3 ppm. The plant was inoculated with the fungus one day after treatment. In a few cases (noted in the table) the plant was inoculated with the fungus two days before treatment.

Experiment [4] has as its system Phytophthora infestans. In words: whole plant or invertebrate. Conditions: Phytophthora infestans, in Solanum lycopersicum, foliar, 24 h, read-out: PHYTIN percent control of disease, 200 ppm on foliage, tomato, one-day protectant test.
Experiment [5] has as its system Colletotricum lagenarium. In words: Cucumber Anthracnose (COLLLA), whole-plant fungicide test. The conditions noted are these: Cucumis sativus, foliar, 24 h, 200 ppm on foliage, one-day protectant test, read-out: COLLLA percent control of disease.
Experiment [6] concerns Magnaporthe grisea. In words: whole plant or invertebrate. The conditions noted are these: Pyricularia oryzae, in Oryza sativa, foliar, 24 h, read-out: PYRIOR percent control of disease, 200 ppm on foliage, rice, one-day protectant test.
In experiment [7] the test system is Erysiphe cichoracaerum. Kind of experiment: Cucumber Powdery Mildew (ERYSCI), whole-plant fungicide test. Conditions: Erysiphe, foliar, 24 h, 200 ppm on foliage, one-day protectant test, read-out: ERYSCI percent control of disease.
Experiment [8] has as its system Septoria tritici. Kind of experiment: Speckled Leaf Blotch of Wheat (SEPTTR), whole-plant fungicide test. Conditions: Zymoseptoria tritici, foliar, 24 h, 200 ppm on foliage, one-day protectant test, read-out: SEPTTR percent control of disease.

Turning to `CC(Nc1ncnc2scc(Cl)c12)c1ccc(F)nc1` (stereo not shown) [Compound 40], the pest or weed control at 200 ppm in experiment [1] is 50 to 79%; in experiment [2] it was 80 to 100%; in experiment [3], 50 to 79%.

With `CCOc1csc2ncnc(N[C@@H](C)c3ccc(OC)cc3)c12` [Compound 43], the pest or weed control at 200 ppm in experiment [4] is 0 to 49%; in experiment [5] it was 0 to 49%; in experiment [1], 0 to 49%; in experiment [2], 50 to 79%; in experiment [6], 50 to 79%; in experiment [3], 0 to 49%.

Turning to `CCOc1csc2ncnc(NC(C)c3ccc(OC)nc3)c12` (stereo not shown) [Compound 46], the pest or weed control at 200 ppm was in the range of 0 to 49% in experiment [4]; 0 to 49% in experiment [5]; 50 to 79% in experiment [1]; 50 to 79% in experiment [7]; 80 to 100% in experiment [2]; 80 to 100% in experiment [6]. Further, the pest or weed control at 200 ppm in experiment [3] was in the range of 0 to 49%.

In the case of `COc1ccc(C(C)Nc2ncnc3sc([N+](=O)[O-])cc23)cc1` (stereo not shown) [Compound 47, [1-(4-Methoxyphenyl)ethyl]-(6-nitrothieno[2,3-d]pyrimidin-4-yl)amine], the pest or weed control at 200 ppm in experiment [4] was in the range of 0 to 49%; in experiment [5], 0 to 49%; in experiment [1], 50 to 79%; in experiment [7], 0 to 49%; in experiment [2] it was 80 to 100%; in experiment [6], 80 to 100%. Moreover, the pest or weed control at 200 ppm in experiment [3] was in the range of 0 to 49%.

On to `COc1ccc(C(C)Nc2ncnc3sc(Br)cc23)cc1` (stereo not shown) [Compound 48, (6-Bromothieno[2,3-d]pyrimidin-4-yl)-[1-(4-methoxyphenyl)ethyl]amine], for which the pest or weed control at 200 ppm in experiment [4], in experiment [5], in experiment [1], in experiment [7], in experiment [2] and in experiment [6] was 0 to 49% in each case. Also, in experiment [3], the pest or weed control at 200 ppm was 80 to 100%.

`COc1ccc(C(C)Nc2ncnc3scc(C#N)c23)cc1` (stereo not shown) [Compound 49, 5-Cyano-N-[1-(4-methoxyphenyl)ethyl]thieno[2,3-d]pyrimidin-4-amine]: the pest or weed control at 200 ppm in experiment [4] lay within 0 to 49%; in experiment [5] it was 0 to 49%; in experiment [1], 0 to 49%; in experiment [2], 80 to 100%; in experiment [6], 80 to 100%; in experiment [3], 50 to 79%.

Regarding `CCOC(=O)c1csc2ncnc(NC(C)c3ccc(OC)cc3)c12` (stereo not shown) [Compound 50, 5-Carboethoxy-N-[1-(4-methoxyphenyl)ethyl]thieno[2,3-d]pyrimidin-4-amine], the pest or weed control at 200 ppm is 0 to 49% in experiment [4]; 0 to 49% in experiment [5]; 0 to 49% in experiment [1]; 0 to 49% in experiment [2]; 0 to 49% in experiment [6]; 50 to 79% in experiment [3].

`CCOC(=O)c1sc2ncnc(NC(C)c3ccc(OC)cc3)c2c1OC` (stereo not shown) [Compound 51, 5-Methoxy-4-[1-(4-methoxyphenyl)ethylamino]thieno[2,3-d]pyrimidine-6-carboxylic Acid Ethyl Ester]: the pest or weed control at 200 ppm in experiment [8], in experiment [1], in experiment [2] and in experiment [3] was 0 to 49% throughout.

Take `COc1ccc(OCC(C)Nc2ncnc3scc(Cl)c23)cn1` (stereo not shown) [Compound 53]: the pest or weed control at 200 ppm in experiment [4] was in the range of 0 to 49%; in experiment [5], 0 to 49%; in experiment [8] it was 50 to 79%; in experiment [1], 0 to 49%; in experiment [2], 80 to 100%; in experiment [6], 50 to 79%. The pest or weed control at 200 ppm in experiment [3] lay within 50 to 79%.

In the case of `CC(Nc1ncnc2scc(Cl)c12)c1cnc(OCC(F)(F)F)nc1` (stereo not shown) [Compound 54], the pest or weed control at 200 ppm was 80 to 100% in experiment [4]; 0 to 49% in experiment [5]; 50 to 79% in experiment [8]; 50 to 79% in experiment [1]; 80 to 100% in experiment [2]; 80 to 100% in experiment [6]. Further, the pest or weed control at 200 ppm in experiment [3] is 0 to 49%.

With `COc1ncc(C(C)Nc2ncnc3scc(Cl)c23)cn1` (stereo not shown) [Compound 55], the pest or weed control at 200 ppm in experiment [4] was 80 to 100%; in experiment [5], 0 to 49%; in experiment [8], 80 to 100%; in experiment [1] it was 50 to 79%; in experiment [2] it was 80 to 100%; in experiment [6], 50 to 79%. Moreover, the pest or weed control at 200 ppm in experiment [3] lay within 0 to 49%.

Take `Clc1csc2ncnc(N3CCCC3c3cccnc3)c12` (stereo not shown) [Compound 56]: the pest or weed control at 200 ppm in experiment [4] is 0 to 49%; in experiment [5] it was 0 to 49%; in experiment [1], 0 to 49%; in experiment [7], 0 to 49%; in experiment [2], 50 to 79%; in experiment [6] it was 0 to 49%. In addition, the pest or weed control at 200 ppm in experiment [3] is 0 to 49%.

For `CC(COc1cccc(Cl)n1)Nc1ncnc2scc(Cl)c12` (stereo not shown) [Compound 57], the pest or weed control at 200 ppm lay within 0 to 49% in experiment [4]; 0 to 49% in experiment [5]; 80 to 100% in experiment [8]; 0 to 49% in experiment [1]; 50 to 79% in experiment [7]; 80 to 100% in experiment [2]. In addition, the pest or weed control at 200 ppm lay in the range of 80 to 100% in experiment [6] and 0 to 49% in experiment [3].

On to `CC(Nc1ncnc2scc(Cl)c12)c1ccc(NC=O)cc1` (stereo not shown) [Compound 58], for which the pest or weed control at 200 ppm in experiment [4] was in the range of 0 to 49%; in experiment [5] it was 50 to 79%; in experiment [8], 50 to 79%; in experiment [1], 0 to 49%; in experiment [7], 0 to 49%; in experiment [2], 80 to 100%. Further, the pest or weed control at 200 ppm in experiment [6] is 80 to 100%; in experiment [3], 0 to 49%.

Regarding `CC(=O)Nc1ccc(C(C)Nc2ncnc3scc(Cl)c23)cc1` (stereo not shown) [Compound 59], the pest or weed control at 200 ppm lay in the range of 0 to 49% in experiment [4]; 0 to 49% in experiment [5]; 50 to 79% in experiment [8]; 0 to 49% in experiment [1]; 50 to 79% in experiment [7]; 80 to 100% in experiment [2]. In addition, the values for the pest or weed control at 200 ppm in experiment [6] and in experiment [3] were 80 to 100% and 0 to 49%, respectively.

Regarding `CC(Nc1ncnc2scc(Br)c12)c1ccc(F)nc1` (stereo not shown) [Compound 60], the pest or weed control at 200 ppm in experiment [4] was in the range of 0 to 49%; in experiment [5], 80 to 100%; in experiment [8], 0 to 49%; in experiment [1], 0 to 49%; in experiment [7], 80 to 100%; in experiment [2] it was 80 to 100%. For the same compound, the pest or weed control at 200 ppm in experiment [6] fell in the range of 80 to 100%; in experiment [3] it was 0 to 49%.
